Experimental data taken from US20090325917A1, “Pharmaceutical Compositions and Nasal Spray Incorporating Anhydrous Mometasone Furoate” (CIPLA LIMITED, priority 2006, published 2009).

Columns and labels:
[1] = Storage stability of the composition, crystalline form assessed by X-ray diffraction; assay type: physicochemical; details: in the aqueous composition
From the text: The stability of the compositions in accordance with the present invention may be defined by standard methods. The anhydrous crystalline form is stable at room temperature. […] The crystalline form may be assessed using X-ray diffraction methods.

[2] = Rotation stability of the composition, crystalline form assessed by X-ray diffraction; assay type: physicochemical; details: in the aqueous composition; rotated for five days at 35° C. and an additional four weeks at room temperature
From the text: The crystalline form may be assessed using X-ray diffraction methods.

[3] = Stability of the API on boiling/stirring in water, tested by X-ray diffraction; assay type: physicochemical; details: boiling in water (with and without Tween 80), two hours stirring at 70 deg in a water bath, then 2 hours at 70 deg on a magnetic stirrer; residue dried at 25° C. under vacuum
Method: The monohydrate peak is clearly visible in the BX 2029 trace, and is absent in the remaining pattern, indicating the presence of anhydrous form in the formulation. Stability of the mometasone furoate anhydrous API was confirmed by boiling in water (with and without the surfactant Tween 80) for two hours whilst stirring at 70 deg in a water bath, followed by 2 hours at 70 deg on a magnetic stirrer. The solution was cooled to room temperature, filtered and the residue containing the API was dried at 25° C. under vacuum. […]

[4] = aqueous solution; converted to a different crystalline form after storage at 35° C.; cited from earlier work

- crystalline form of the anhydrous mometasone furoate in the composition ([1]; 25° for a period of three months): does not change
- crystalline form of the anhydrous mometasone furoate in the composition ([1]; 40° C. for a period of three months): does not change
- crystalline form of the anhydrous mometasone furoate in the composition [2]: does not change
SMILES: C[C@@H]1C[C@H]2[C@@H]3CCC4=CC(=O)C=C[C@]4(C)[C@@]3(Cl)[C@@H](O)C[C@]2(C)[C@@]1(OC(=O)c1ccco1)C(=O)CCl [anhydrous mometasone furoate]
- XRD pattern of the dried sample after treatment in water [3]: concordant with that of mometasone furoate anhydrous
- stability of the crystalline form in aqueous composition [4]: unstable
